Publication PMC7464788, “Modification and Targeted Design of N-Terminal Truncates Derived from Brevinin with Improved Therapeutic Efficacy” (Biology, 2020)
In brackets after ≈: the same amount, converted by molar mass. Several values for one entry are separate records, joined by “and”; a condition that tells them apart may be missing. Equal values may be shown once. Positions of bridges follow the written chain, without caps; N, C: chain ends. Residues, ends and D or L forms follow the SMILES beside them.

Assays:
[1] = system: Candida albicans (NCYC1467); assay type: cell-based
Procedure: (§1) The antimicrobial assay was carried out to detect the minimum inhibitory concentration (MIC) and the minimum bactericidal concentration (MBC) of each peptide on the microbes as described previously. Seven different microorganisms were used in the assay: Gram-positive bacteria Staphylococcus aureus (NCTC10788), Enterococcus faecalis (NCTC12697), and methicillin-resistant S. aureus (MRSA) (NCTC12493); Gram-negative bacteria Escherichia coli (NCTC10418), Pseudomonas aeruginosa (ATCC27853), and Klebsiella pneumoniae (ATCC 43816); and fungi Candida albicans (NCYC1467). Bacterial strains were inoculated and grown to mid-log phase in fresh Mueller Hinton broth (MHB) at 37 °C for overnight, then bacteria inoculum suspensions were subcultured until reaching the logarithmic growth phase by measuring OD of the cultures at wavelength 550 nm. Then, 99 µL bacteria and 1 µL peptide solution were mixed in the 96-wells microplate. For positive and negative controls, the bacteria were incubated with antibiotics (Norfloxacin for Gram-positive bacteria and Gram-negative bacteria; Amphotericin B for fungi) solution and MHB medium, respectively. Experiments were repeated five times in five replicates.

[2] = system: Enterococcus faecalis (NCTC12697); assay type: cell-based
Procedure: as §1

[3] = system: Escherichia coli (NCTC10418); assay type: cell-based
Procedure: as §1

[4] = system: Klebsiella pneumoniae (ATCC 43816); assay type: cell-based
Procedure: as §1

[5] = system: Pseudomonas aeruginosa (ATCC27853); assay type: cell-based
Procedure: as §1

[6] = system: Staphylococcus aureus (NCTC10788); assay type: cell-based
Procedure: as §1

[7] = system: methicillin-resistant S. aureus (MRSA) (NCTC12493); assay type: cell-based, Staphylococcus aureus
Procedure: as §1

[8] = system: horse erythrocytes; assay: Haemolytic assay; assay type: cell-based; conditions: 2% (v/v) horse red blood cells, 37 °C, 2 h; 1% Triton-X 100 positive control; three times in five replicates
Procedure: The haemolytic assay was carried out to detect the cytotoxicity of each peptide to erythrocytes obtained from fresh defibrinated horse blood as described before. An appropriate volume of horse blood solution was collected via washing and transferring until the supernatant was clear. Then, 2% (v/v) suspension of red blood cells were incubated with peptide at 37 °C for 2 h. For positive and negative controls, the red blood cells were incubated with 1% (v/v) Triton-X 100 and Phosphate-buffered saline (PBS) solution, respectively. The 10% of maximal haemolysis concentration (HC10, μM) was utilised to assess the haemolytic potential. Experiments were repeated three times in five replicates.

SMILES	MBC C. albicans [1] [µM]	MIC C. albicans [1] [µM]	MBC E. faecalis [2] [µM]	MIC E. faecalis [2] [µM]	MBC E. coli [3] [µM]	MIC E. coli [3] [µM]	MBC K. pneumoniae [4] [µM]	MIC K. pneumoniae [4] [µM]	MBC P. aeruginosa [5] [µM]	MIC P. aeruginosa [5] [µM]	MBC S. aureus [6] [µM]	MBC MRSA [7] [µM]	MIC MRSA [7] [µM]	HC10 (concentration causing 10% red cell lysis) [8]
CC[C@H](C)[C@@H]1NC(=O)[C@H](C)NC(=O)[C@@H](NC(=O)[C@H](Cc2ccccc2)NC(=O)[C@@H](NC(=O)[C@H](CCCCN)NC(=O)[C@H](Cc2c[nH]c3ccccc23)NC(=O)[C@@H]2CCCN2C(=O)[C@H](CC(C)C)NC(=O)[C@H](Cc2ccccc2)NC(=O)[C@@H](N)CCCCN)[C@@H](C)CC)CSSC[C@@H](C(=O)O)NC(=O)[C@H](CCCCN)NC(=O)[C@H](CCCCN)NC(=O)[C@H]([C@@H](C)O)NC1=O [KWB2] (H-KFLPWKIFCAITKKC-OH; disulfide 9-15)	64 (≈ 117 µg/mL)	16 (≈ 29.2 µg/mL)	512 (≈ 934 µg/mL)	256 (≈ 467 µg/mL)	32 (≈ 58.4 µg/mL)	16 (≈ 29.2 µg/mL)	128 (≈ 234 µg/mL)	64 (≈ 117 µg/mL)	256 (≈ 467 µg/mL)	128 (≈ 234 µg/mL)	32 (≈ 58.4 µg/mL)	64 (≈ 117 µg/mL)	8 (≈ 14.6 µg/mL)	99.81 µM
CC[C@H](C)[C@@H]1NC(=O)[C@H](C)NC(=O)[C@@H](NC(=O)[C@H](Cc2ccccc2)NC(=O)[C@@H](NC(=O)[C@H](CCCCN)NC(=O)[C@H](Cc2c[nH]c3ccccc23)NC(=O)[C@@H]2CCCN2C(=O)[C@H](CC(C)C)NC(=O)[C@H](Cc2ccccc2)NC(=O)[C@H](CCCCN)NC(=O)[C@@H](N)CCCCN)[C@@H](C)CC)CSSC[C@@H](C(=O)O)NC(=O)[C@H](CCCCN)NC(=O)[C@H](CCCCN)NC(=O)[C@H]([C@@H](C)O)NC1=O [KKWB2] (H-KKFLPWKIFCAITKKC-OH; disulfide 10-16)	32 (≈ 62.5 µg/mL)	8 (≈ 15.6 µg/mL)	512 (≈ 1000 µg/mL)	256 (≈ 500 µg/mL)	32 (≈ 62.5 µg/mL)	16 (≈ 31.2 µg/mL)	32 (≈ 62.5 µg/mL)	32 (≈ 62.5 µg/mL)	64 (≈ 125 µg/mL)	64 (≈ 125 µg/mL)	16 (≈ 31.2 µg/mL)	32 (≈ 62.5 µg/mL)	8 (≈ 15.6 µg/mL)	140.04 µM
CC[C@H](C)[C@@H]1NC(=O)[C@H](C)NC(=O)[C@@H](NC(=O)[C@H](Cc2ccccc2)NC(=O)[C@@H](NC(=O)[C@H](CCCCN)NC(=O)[C@@H]2CCCN2C(=O)[C@H](CC(C)C)NC(=O)[C@H](Cc2ccccc2)NC(=O)[C@H](CCCCN)NC(=O)[C@H](C)NC(=O)[C@H](C)NC(=O)[C@H](CC(C)C)NC(=O)CNC(=O)[C@H](C)NC(=O)[C@@H](NC(=O)[C@H](CC(C)C)NC(=O)[C@@H]2CCCN2C(=O)[C@H](CC(C)C)NC(=O)[C@@H](N)Cc2ccccc2)[C@@H](C)CC)[C@@H](C)CC)CSSC[C@@H](C(=O)O)NC(=O)[C@H](CCCCN)NC(=O)[C@H](CCCCN)NC(=O)[C@H]([C@@H](C)O)NC1=O [Peptide B1A] (H-FLPLIAGLAAKFLPKIFCAITKKC-OH; disulfide 18-24)	8 (≈ 20.8 µg/mL)	4 (≈ 10.4 µg/mL)	32 (≈ 83.4 µg/mL)	8 (≈ 20.8 µg/mL)	32 (≈ 83.4 µg/mL)	8 (≈ 20.8 µg/mL)	16 (≈ 41.7 µg/mL)	16 (≈ 41.7 µg/mL)	64 (≈ 167 µg/mL)	32 (≈ 83.4 µg/mL)	8 (≈ 20.8 µg/mL)	32 (≈ 83.4 µg/mL)	16 (≈ 41.7 µg/mL)	1.576 µM
CC[C@H](C)[C@@H]1NC(=O)[C@H](C)NC(=O)[C@@H](NC(=O)[C@H](Cc2ccccc2)NC(=O)[C@@H](NC(=O)[C@H](CCCCN)NC(=O)[C@@H]2CCCN2C(=O)[C@H](CC(C)C)NC(=O)[C@@H](N)Cc2ccccc2)[C@@H](C)CC)CSSC[C@@H](C(=O)O)NC(=O)[C@H](CCCCN)NC(=O)[C@H](CCCCN)NC(=O)[C@H]([C@@H](C)O)NC1=O [Peptide B1A2] (H-FLPKIFCAITKKC-OH; disulfide 7-13)	512 (≈ 773 µg/mL)	512 (≈ 773 µg/mL)	> 512	> 512	256 (≈ 387 µg/mL)	256 (≈ 387 µg/mL)	> 512	> 512	> 512	> 512	256 (≈ 387 µg/mL)	> 512	256 (≈ 387 µg/mL)	could not be calculated and >512 µM
CC[C@H](C)[C@@H]1NC(=O)[C@H](C)NC(=O)[C@@H](NC(=O)[C@H](Cc2ccccc2)NC(=O)[C@@H](NC(=O)[C@H](CCCCN)NC(=O)[C@H](Cc2c[nH]c3ccccc23)NC(=O)[C@@H]2CCCN2C(=O)[C@H](Cc2c[nH]c3ccccc23)NC(=O)[C@H](Cc2ccccc2)NC(=O)[C@@H](N)CCCCN)[C@@H](C)CC)CSSC[C@@H](C(=O)O)NC(=O)[C@H](CCCCN)NC(=O)[C@H](CCCCN)NC(=O)[C@H]([C@@H](C)O)NC1=O [KW^3,5B2] (H-KFWPWKIFCAITKKC-OH; disulfide 9-15)	32 (≈ 60.7 µg/mL)	8 (≈ 15.2 µg/mL)	256 (≈ 486 µg/mL)	256 (≈ 486 µg/mL)	32 (≈ 60.7 µg/mL)	16 (≈ 30.4 µg/mL)	64 (≈ 121 µg/mL)	32 (≈ 60.7 µg/mL)	128 (≈ 243 µg/mL)	64 (≈ 121 µg/mL)	16 (≈ 30.4 µg/mL)	32 (≈ 60.7 µg/mL)	8 (≈ 15.2 µg/mL)	32.07 µM
CC[C@H](C)[C@@H]1NC(=O)[C@H](C)NC(=O)[C@@H](NC(=O)[C@H](CCCCN)NC(=O)[C@H](C)NC(=O)[C@H](C)NC(=O)[C@H](CC(C)C)NC(=O)CNC(=O)[C@H](C)NC(=O)[C@@H](NC(=O)[C@H](CC(C)C)NC(=O)[C@@H]2CCCN2C(=O)[C@H](CC(C)C)NC(=O)[C@@H](N)Cc2ccccc2)[C@@H](C)CC)CSSC[C@@H](C(=O)O)NC(=O)[C@H](CCCCN)NC(=O)[C@H](CCCCN)NC(=O)[C@H]([C@@H](C)O)NC1=O [Peptide B1A1] (H-FLPLIAGLAAKCAITKKC-OH; disulfide 12-18)	512 (≈ 952 µg/mL)	512 (≈ 952 µg/mL)	> 512	> 512	> 512	512 (≈ 952 µg/mL)	> 512	> 512	> 512	> 512	> 512	> 512	> 512	could not be calculated and >512 µM
CC[C@H](C)[C@@H]1NC(=O)[C@H](C)NC(=O)[C@@H](NC(=O)[C@H](Cc2ccccc2)NC(=O)[C@@H](NC(=O)[C@H](CCCCN)NC(=O)[C@@H]2CCCN2C(=O)[C@H](CC(C)C)NC(=O)[C@H](Cc2ccccc2)NC(=O)[C@@H](N)CCCCN)[C@@H](C)CC)CSSC[C@@H](C(=O)O)NC(=O)[C@H](CCCCN)NC(=O)[C@H](CCCCN)NC(=O)[C@H]([C@@H](C)O)NC1=O [KB2] (H-KFLPKIFCAITKKC-OH; disulfide 8-14)	512 (≈ 839 µg/mL)	128 (≈ 210 µg/mL)	> 512	512 (≈ 839 µg/mL)			256 (≈ 419 µg/mL)	256 (≈ 419 µg/mL)	> 512	512 (≈ 839 µg/mL)		128 (≈ 210 µg/mL)	16 (≈ 26.2 µg/mL)	154 µM
